test system: not given; conditions: not given

SMILES	melting point [°C]
COC(=O)c1ccc(Cn2c(=O)c3cc(C(=O)NCc4ccncc4)ccc3n3cnnc23)cc1 [Example 12, Methyl 4-{7-[(pyridin-4-ylmethyl)-carbamoyl]-5-oxo-5H-[1,2,4]triazolo[4,3-a]quinazol-4-ylmethyl}benzoate]	235
O=C(O)c1ccc(Cn2c(=O)c3cc(C(=O)NCc4ccc5c(c4)OCO5)ccc3n3cnnc23)cc1 [Example 22, 4-{7-[(1,3-Benzodioxol-5-ylmethyl)-carbamoyl]-5-oxo-5H-[1,2,4]triazolo[4,3]quinazol-4-ylmethyl}benzoic acid]	235
COc1ccc(CNC(=O)c2ccc3c(c2)c(=O)n(CCOc2ccc(Cl)cc2)c2nncn32)cc1 [Example 20, 4-[2-(4-Chloro-phenoxy)-ethyl]-5-oxo-4,5-dihydro-[1,2,4]triazolo[4,3-a]quinazoline-7-carboxylic acid 4-methoxy-benzylamide]	186
O=C(O)c1ccc(Cn2c(=O)c3cc(C(=O)NCc4ccc(F)cc4)ccc3n3cnnc23)cc1 [Example 24, 4-{7-[(4-Fluoro)-benzylcarbamoyl]-5-oxo-5H-[1,2,4]triazolo[4,3-a]quinazol-4-ylmethyl}benzoic acid]	303
COC(=O)c1ccc(Cn2c(=O)c3cc(C(=O)NCc4ccc(OC)cc4)ccc3n3cnnc23)cc1 [Example 11, Methyl 4-{7-[(4-methoxybenzyl)-carbamoyl]-5-oxo-5H-[1,2,4]triazolo[4,3-a]quinazol-4-ylmethyl}benzoate]	210
CN(C)CCOC(=O)c1ccc(Cn2c(=O)c3cc(C(=O)NCc4ccc(F)cc4)ccc3n3cnnc23)cc1 [Example 13, (2-Dimethylamino-ethyl) 4-[7-(4-fluoro-benzylcarbamoyl)-5-oxo-5H-[1,2,4]triazolo[4,3-a]quinazol-4-ylmethyl]benzoate]	175
N#Cc1ccc(Cn2c(=O)c3cc(C(=O)NCc4ccncc4)ccc3n3cnnc23)cc1 [Example 15, N-(pyridin-4-ylmethyl)-4-(4-cyanobenzyl)-5-oxo-4H-[1,2,4]triazolo[4,3-a]quinazol-7-ylcarboxamide]	300
O=C(O)c1ccc(Cn2c(=O)c3cc(C(=O)NCc4ccncc4)ccc3n3cnnc23)cc1 [Example 23, 4-{7-[(Pyridin-4-ylmethyl)-carbamoyl]-5-oxo-5H-[1,2,4]triazolo[4,3-a]quinazol-4-ylmethyl}benzoic acid]	255
O=C(O)Cc1ccc(Cn2c(=O)c3cc(C(=O)NCc4ccc5c(c4)OCO5)ccc3n3cnnc23)cc1 [Example 26, (4-{7-[(1,3-Benzodioxol-5-ylmethyl)-carbamoyl]-5-oxo-5H-[1,2,4]triazolo[4,3-a]quinazolin-4-ylmethyl}-phenyl)-acetic acid]	232
COC(=O)c1ccc(Cn2c(=O)c3cc(C(=O)NCc4ccc5c(c4)OCO5)ccc3n3cnnc23)cc1 [Example 10, Methyl 4-{7-[(1,3-benzodioxol-5-ylmethyl)-carbamoyl]-5-oxo-5H-[1,2,4]triazolo[4,3-a]quinazol-4-ylmethyl}benzoate]	248
COc1ccc(CNC(=O)c2ccc3c(c2)c(=O)n(Cc2ccc(CC(=O)O)cc2)c2nncn32)cc1 [Example 25, (4-{7-[(4-Methoxy)-benzylcarbamoyl]-5-oxo-5H-[1,2,4]triazolo[4,3-a]quinazolin-4-ylmethyl}-phenyl)-acetic acid]	268
O=C(NCc1ccncc1)c1ccc2c(c1)c(=O)n(C/C=C/c1ccncc1)c1nncn21 [Example 19, N-(pyridin-4-ylmethyl) 4-[3-(pyridin-4-yl)-2-propen-1-yl]-5-oxo-4H-[1,2,4]triazolo[4,3-a]quinazol-7-ylcarboxamide]	250
COC(=O)Cc1ccc(Cn2c(=O)c3cc(C(=O)NCc4ccc(OC)cc4)ccc3n3cnnc23)cc1 [Example 17, Methyl (4-{7-[(4-methoxy)-benzylcarbamoyl]-5-oxo-5H-[1,2,4]triazolo[4,3-a]quinazolin-4-ylmethyl}-phenyl)-acetate]	204

test system: MMP-1, MMP-2, MMP-3, MMP-9 and MMP-13; conditions: prior art compounds, collagenase, gelatinase and stromelysin type MMPs; cited from earlier work

SMILES	inhibition of MMP-1, MMP-2, MMP-3, MMP-9 and MMP-13 (non-selective)
CC1(C)SCCN(S(=O)(=O)c2ccc(Oc3ccncc3)cc2)[C@H]1C(=O)NO [AG-3340]	simultaneously inhibit
COc1ccc(S(=O)(=O)N(Cc2cccnc2)[C@@H](C(=O)NO)C(C)C)cc1 [CGS-27.023A]	simultaneously inhibit
